Structures can show the parent of a compound that is named as a salt. Values belong to the molecule of their own block, whether it stands above or below them.
How the values were obtained:
CDK7/CycH/MAT1 = CDK7/CycH/MAT1 (Homo sapiens, UniProt P50613); experiment: Kinase Glo (ADP-Glo) biochemical assay, CDK7; conditions: CDK7/CycH/MAT1 40 ng, ATP 1 μM, 60 minutes at RT, luminescence
Procedure: Materials: • Assay Buffer: 50 mM HEPES, 3 mM MgCl2, 3 mM MnCl2, 1 mM DTT, 3 μM Na3VO4, pH 7.5 • Substrate RB • CTF Peptide (ProQinase #: 0040-0000-6) • Enzymes • CDK7/CycH/MAT1 (ProQinase #: 0366-0360-4) • ADP-Glo™ Assay (Promega #: V9101) • ATP: 10 mM • ADP-Glo™ Reagent • Kinase Detection Reagent • 384-well white assay plates
A ten point serial dilution of compound was prepared at 5X concentration in assay buffer with the final assay concentrations starting at 30 μM, 10 μM, 3 μM, 1 μM . . . 0 μM. Enzyme, substrate, and ATP were used at 40 ng, 200 ng (or 400 ng)* and 1 μM, respectively. The assay plate was set up by mixing the components in a total reaction volume of 10 μL per well. The plate was centrifuged gently for 10 seconds and incubated at room temperature (RT) for 60 minutes in the dark. The ADP-Glo Reagent and kinase detection reagent were added and incubated as recommended. The reaction was quantified by measuring luminescence on the Perkin Elmer Envision plate reader.

[1] = system: MiaPaCa2 pancreatic cancer cell line; experiment: Cell viability assay (Cell Titer Glo), MiaPaCa2; assay type: cell-based; conditions: Homo sapiens, MIA PaCa-2; Table 7a; pancreatic cancer cell line, 72 hour incubation
Procedure: (§1) Materials: • Cell Lines (Treated according to ATCC guidelines) • Cell Titer Glo (Promega Cat #G7572) • DMSO • 96-well White Tissue Culture Treated Plates (Perkin Elmer Cat #60005680)
(§2) Cells were seeded in a white 96-well tissue culture treated plate at a density of 1500 cells in 90 μL of media per well and allowed to settle overnight. A ten point serial dilution of drugs was prepared at 10×concentration in media with the final assay concentrations starting at 30 μM, 10 μM, 3 μM, 1 μM, 0.3 μM . . . 0 μM. A dilution of DMSO was included as a control. The assay was set up by adding 10 μL of the corresponding drug to each well in duplicate, followed by a 72 hour incubation at 37° C., 5% CO2. Cell viability was quantified by adding 90 μL of Cell Titer Glo to each well and incubating at room temperature for 10 minutes. The reaction was quantified by measuring luminescence using the Envision Plate Reader. Data was analyzed using Graphpad Prism 7 software.

[2] = system: HPAC pancreatic cancer cell line; experiment: Cell viability assay (Cell Titer Glo), HPAC; assay type: cell-based; conditions: Homo sapiens, HPAC; Table 7a; pancreatic cancer cell line, 72 hour incubation
Procedure: as §1, §2

[3] = system: Kasumi1 leukemia cancer cell line; experiment: Cell viability assay (Cell Titer Glo), Kasumi1; assay type: cell-based; conditions: Homo sapiens, Kasumi 1, Table 7a, 72 hour incubation
Procedure: as §1, §2

[4] = system: A2780 ovarian cancer cell line; experiment: Cell viability assay (Cell Titer Glo), A2780; assay type: cell-based; conditions: Homo sapiens, A2780, Table 7a, 72 hour incubation
Procedure: as §1, §2

Chain of CDK7/CycH/MAT1 (P50613 whole entry): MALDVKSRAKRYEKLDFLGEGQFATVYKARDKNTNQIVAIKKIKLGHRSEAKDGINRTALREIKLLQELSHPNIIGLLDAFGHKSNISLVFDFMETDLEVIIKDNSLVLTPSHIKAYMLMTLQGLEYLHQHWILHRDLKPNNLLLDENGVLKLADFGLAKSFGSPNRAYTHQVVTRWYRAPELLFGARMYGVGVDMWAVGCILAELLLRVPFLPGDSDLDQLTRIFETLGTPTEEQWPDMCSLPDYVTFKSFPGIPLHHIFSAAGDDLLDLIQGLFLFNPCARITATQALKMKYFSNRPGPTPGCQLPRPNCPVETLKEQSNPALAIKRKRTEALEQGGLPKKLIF
Chain of CDK7/CycH/MAT1 (P51946 whole entry partner): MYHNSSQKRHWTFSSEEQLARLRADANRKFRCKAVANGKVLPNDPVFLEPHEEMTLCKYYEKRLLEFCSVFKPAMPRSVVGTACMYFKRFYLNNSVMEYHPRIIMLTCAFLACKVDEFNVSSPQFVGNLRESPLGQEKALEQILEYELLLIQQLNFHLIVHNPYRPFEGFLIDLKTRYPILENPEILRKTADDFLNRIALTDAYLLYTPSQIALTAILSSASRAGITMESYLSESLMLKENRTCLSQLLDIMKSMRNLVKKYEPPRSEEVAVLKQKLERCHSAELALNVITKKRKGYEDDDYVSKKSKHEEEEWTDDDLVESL
Chain of CDK7/CycH/MAT1 (P51948 whole entry partner): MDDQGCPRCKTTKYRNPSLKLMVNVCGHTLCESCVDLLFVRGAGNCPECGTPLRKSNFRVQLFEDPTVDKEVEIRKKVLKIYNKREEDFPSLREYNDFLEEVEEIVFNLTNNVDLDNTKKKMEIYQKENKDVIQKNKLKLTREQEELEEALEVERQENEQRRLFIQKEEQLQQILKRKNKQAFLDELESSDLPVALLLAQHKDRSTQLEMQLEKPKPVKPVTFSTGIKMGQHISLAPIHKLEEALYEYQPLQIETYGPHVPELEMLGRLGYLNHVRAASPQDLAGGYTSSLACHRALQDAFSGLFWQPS

IC50 (CDK7/CycH/MAT1): < 100 nM | IC50 [1]: 1 to 5 µM | IC50 [2]: 1 to 5 µM | IC50 [3]: 1 to 5 µM | IC50 [4]: 1 to 5 µM
SMILES: CC(C)c1cnc2c(NCc3ccccc3OC(F)(F)F)cc(OC3CCNCC3F)nn12 (stereo not shown) [Compound 70, 6-((3-fluoropiperidin-4-yl)oxy)-3-isopropyl-N-(2-(trifluoromethoxy)benzyl)imidazo[1,2-b]pyridazin-8-amine hydrochloride]

IC50 (CDK7/CycH/MAT1): < 100 nM | IC50 [1]: < 1 µM | IC50 [2]: < 1 µM | IC50 [3]: 1 to 5 µM | IC50 [4]: < 1 µM
SMILES: CC(C)c1cnc2c(NCc3ccc(F)cc3F)cc(SC3CCNCC3)nn12 [Compound 56, N-(2,4-difluorobenzyl)-3-isopropyl-6-(piperidin-4-ylthio)imidazo[1,2-b]pyridazin-8-amine hydrochloride]

IC50 (CDK7/CycH/MAT1): < 100 nM | IC50 [1]: 1 to 5 µM | IC50 [2]: < 1 µM | IC50 [3]: 1 to 5 µM | IC50 [4]: 1 to 5 µM
SMILES: Fc1cccc(Nc2cc(O[C@@H]3CCNC3)nn3c(C4CC4)cnc23)c1 [Compound 6, (R)-3-cyclopropyl-N-(3-fluorophenyl)-6-(pyrrolidin-3-yloxy)imidazo[1,2-b]pyridazin-8-amine]

IC50 (CDK7/CycH/MAT1): < 100 nM | IC50 [1]: 1 to 5 µM | IC50 [2]: 1 to 5 µM | IC50 [3]: 1 to 5 µM | IC50 [4]: 1 to 5 µM
SMILES: COc1ccccc1CNc1cc(SC2CCNCC2F)nn2c(C(C)C)cnc12 (stereo not shown) [Compound 73, 6-((3-fluoropiperidin-4-yl)thio)-3-isopropyl-N-(2-methoxybenzyl)imidazo[1,2-b]pyridazin-8-amine hydrochloride]

IC50 (CDK7/CycH/MAT1): 100 to 1000 nM
SMILES: CC(C)c1cnc2c(Nc3cccc(OC(F)(F)F)c3)cc(SC3CCCNC3)nn12 (stereo not shown) [Compound 58, 3-isopropyl-6-(piperidin-3-ylthio)-N-(3-(trifluoromethoxy)phenyl)imidazo[1,2-b]pyridazin-8-amine hydrochloride]

IC50 (CDK7/CycH/MAT1): 100 to 1000 nM
SMILES: CC(C)c1cnc2c(Nc3cccc(F)c3)cc(OC3CCNCC3)nn12 [Compound 50, N-(3-fluorophenyl)-3-isopropyl-6-(piperidin-4-yloxy)imidazo[1,2-b]pyridazin-8-amine hydrochloride]

IC50 (CDK7/CycH/MAT1): < 100 nM
SMILES: FC(F)(F)c1cnc2c(NCc3ccccc3)cc(SC3CCNCC3)nn12 [Compound 78, N-benzyl-6-(piperidin-4-ylthio)-3-(trifluoromethyl)imidazo[1,2-b]pyridazin-8-amine hydrochloride]

IC50 (CDK7/CycH/MAT1): 100 to 1000 nM
SMILES: CN1CCC(Oc2cc(Nc3cccc(F)c3)c3ncc(C4CC4)n3n2)CC1 [Compound 2, 3-cyclopropyl-N-(3-fluorophenyl)-6-((1-methylpiperidin-4-yl)oxy)imidazo[1,2-b]pyridazin-8-amine]

IC50 (CDK7/CycH/MAT1): < 100 nM
SMILES: CC(C)c1cnc2c(N[C@@H](C)c3ccccc3)cc(SC3CCCNC3)nn12 (stereo partly drawn) [Compound 28, 3-isopropyl-N-((S)-1-phenylethyl)-6-(piperidin-3-ylthio) imidazo [1,2-b]pyridazin-8-amine hydrochloride]

IC50 (CDK7/CycH/MAT1): 100 to 1000 nM
SMILES: CC(C)c1cnc2c(NCc3ccccc3)cc(NC[C@H]3CCCNC3)nn12 [Compound I-4]

IC50 (CDK7/CycH/MAT1): 100 to 1000 nM
SMILES: CC(C)c1cnc2c(N[C@@H](C)c3ccccc3)cc(OC3CCNCC3)nn12 [Compound 27, hydrochloride]

IC50 (CDK7/CycH/MAT1): 100 to 1000 nM
SMILES: COC(=O)[C@@H](N)CSc1cc(NCc2ccccc2)c2ncc(C3CC3)n2n1 [Compound 30, methyl S-(8-(benzylamino)-3-cyclopropylimidazo[1,2-b]pyridazin-6-yl)-L-cysteinate hydrochloride]

IC50 (CDK7/CycH/MAT1): 100 to 1000 nM
SMILES: CC(C)c1cnc2c(NCc3ccccc3OC(F)(F)F)cc(OC[C@@H]3CNCCO3)nn12 [Compound 49, (S)-3-isopropyl-6-(morpholin-2-ylmethoxy)-N-(2-(trifluoromethoxy)benzyl)imidazo[1,2-b]pyridazin-8-amine hydrochloride]

IC50 (CDK7/CycH/MAT1): < 100 nM
SMILES: CC(C)c1cnc2c(NCc3ccccc3)cc(NC[C@H]3CCNC[C@@H]3O)nn12 [Compound I-3]

Further lines, the molecule ahead of its results:

SMILES: CC(C)c1cnc2c(Nc3cccc(C(F)(F)F)c3)cc(SC3CCCNC3)nn12 (stereo not shown) [Compound 57, 3-isopropyl-6-(piperidin-3-ylthio)-N-(3-(trifluoromethyl)phenyl)imidazo[1,2-b]pyridazin-8-amine hydrochloride]
IC50 (CDK7/CycH/MAT1): 100 to 1000 nM

SMILES: CN1CC[C@H](Oc2cc(NCc3ccccc3)c3ncc(C4CC4)n3n2)C1 [Compound 8, (S)—N-benzyl-3-cyclopropyl-6-((1-methylpyrrolidin-3-yl)oxy)imidazo[1,2-b]pyridazin-8-amine]
IC50 (CDK7/CycH/MAT1): 100 to 1000 nM

SMILES: CN1CC[C@H](Oc2cc(Nc3cccc(F)c3)c3ncc(C4CC4)n3n2)C1 [Compound 5, (S)-3-cyclopropyl-N-(3-fluorophenyl)-6-((1-methylpyrrolidin-3-yl)oxy)imidazo[1,2-b]pyridazin-8-amine]
IC50 (CDK7/CycH/MAT1): 100 to 1000 nM

SMILES: O=C(N1CCC(Sc2cc(NCc3ccccc3)c3ncc(C4CC4)n3n2)CC1)C(F)(F)F [Compound 20, 1-(4-((8-(benzylamino)-3-cyclopropylimidazo[1,2-b]pyridazin-6-yl)thio)piperidin-1-yl)-2,2,2-trifluoroethan-1-one]
IC50 (CDK7/CycH/MAT1): > 1000 nM

SMILES: CC(C)c1cnc2c(NCc3c(F)cccc3F)cc(SC3CCNCC3)nn12 [Compound 52, N-(2,6-difluorobenzyl)-3-isopropyl-6-(piperidin-4-ylthio)imidazo[1,2-b]pyridazin-8-amine hydrochloride]
IC50 (CDK7/CycH/MAT1): < 100 nM

SMILES: CN1CCC[C@H](Oc2cc(NCc3ccccc3)c3ncc(C4CC4)n3n2)C1 [Compound 11, (S)—N-benzyl-3-cyclopropyl-6-((1-methylpiperidin-3-yl)oxy)imidazo[1,2-b]pyridazin-8-amine]
IC50 (CDK7/CycH/MAT1): 100 to 1000 nM

SMILES: CN1CCC[C@@H](Oc2cc(Nc3cccc(F)c3)c3ncc(C4CC4)n3n2)C1 [Compound 4, (R)-3-cyclopropyl-N-(3-fluorophenyl)-6-((1-methylpiperidin-3-yl)oxy)imidazo[1,2-b]pyridazin-8-amine]
IC50 (CDK7/CycH/MAT1): > 1000 nM

SMILES: CC(C)c1cnc2c(Nc3c(F)cccc3F)cc(SC3CCCNC3)nn12 (stereo not shown) [Compound 59, N-(2,6-difluorophenyl)-3-isopropyl-6-(piperidin-3-ylthio)imidazo[1,2-b]pyridazin-8-amine hydrochloride]
IC50 (CDK7/CycH/MAT1): < 100 nM

SMILES: CC(C)c1cnc2c(Nc3ccccc3OC(F)(F)F)cc(SC3CCCNC3)nn12 (stereo not shown) [Compound 60, 3-isopropyl-6-(piperidin-3-ylthio)-N-(2-(trifluoromethoxy)phenyl)imidazo[1,2-b]pyridazin-8-amine hydrochloride]
IC50 (CDK7/CycH/MAT1): 100 to 1000 nM

SMILES: CC(C)c1cnc2c(NCc3ccc(F)cc3C(F)(F)F)cc(SC3CCCNC3)nn12 (stereo not shown) [Compound 81, N-(4-fluoro-2-(trifluoromethyl)benzyl)-3-isopropyl-6-(piperidin-3-ylthio)imidazo[1,2-b]pyridazin-8-amine hydrochloride]
IC50 (CDK7/CycH/MAT1): 100 to 1000 nM

SMILES: c1ccc(CNc2cc(O[C@H]3CCNC3)nn3c(C4CC4)cnc23)cc1 [Compound 12, (S)—N-benzyl-3-cyclopropyl-6-(pyrrolidin-3-yloxy)imidazo[1,2-b]pyridazin-8-amine]
IC50 (CDK7/CycH/MAT1): 100 to 1000 nM

SMILES: COc1ccccc1CNc1cc(OC2CCN(C)CC2)nn2c(C3CC3)cnc12 [Compound I-2]
IC50 (CDK7/CycH/MAT1): 100 to 1000 nM

SMILES: CC(C)c1cnc2c(NCc3ccccc3OC(F)(F)F)cc(SC3CCNCC3F)nn12 (stereo not shown) [Compound 74, 6-((3-fluoropiperidin-4-yl)thio)-3-isopropyl-N-(2-(trifluoromethoxy)benzyl)imidazo[1,2-b]pyridazin-8-amine hydrochloride]
IC50 (CDK7/CycH/MAT1): 100 to 1000 nM

SMILES: CC(C)c1cnc2c(NCc3ccccc3OC(F)(F)F)cc(OC3CCNCC3(F)F)nn12 (stereo not shown) [Compound 71, 6-((3,3-difluoropiperidin-4-yl)oxy)-3-isopropyl-N-(2-(trifluoromethoxy)benzyl)imidazo[1,2-b]pyridazin-8-amine hydrochloride]
IC50 (CDK7/CycH/MAT1): > 1000 nM

SMILES: CC(C)c1cnc2c(NCc3ccccc3)cc(S[C@H]3CCCNC3)nn12 (single isomer, unassigned) [Compound 42, hydrochloride]
IC50 (CDK7/CycH/MAT1): < 100 nM

SMILES: CN1CCC[C@H](Oc2cc(Nc3cccc(F)c3)c3ncc(C4CC4)n3n2)C1 [Compound 7, (S)-3-cyclopropyl-N-(3-fluorophenyl)-6-((1-methylpiperidin-3-yl)oxy)imidazo[1,2-b]pyridazin-8-amine]
IC50 (CDK7/CycH/MAT1): > 1000 nM
